According to patent US7071222B2, “Preparation containing a combination of 5-methylisoxazole-4-carboxylic acid-(4-trifluoromethyl)-anilide and N-(4-trifluoromethylphenyl)2-cyano-3-hydroxycrotonic acid amide” (Sanofi-Aventis Deuschland GmbH, priority 1996, dated 2006):

What was measured:
[1] = tested on: Adjuvant-induced arthritis; assay: Adjuvant-induced arthritis, modification in accordance with Perper; type: in vivo, rats of a Lewis strain; conditions: Compound 1 10 mg/kg of rat, Compound 2 0 mg/kg; oral once daily day 1-12; determined day 18; vs control group
Experimental: Adjuvant-induced arthritis, modification in accordance with […] (Proc. Soc. exp. Biol. Med. 137, 506 (1971)) Male rats of a Lewis strain (Moellegard, Denmark) having a body weight of from 160 to 210 g are used as the experimental animals. On the 1st day, the animals are injected subcutaneously, into the tail root, with complete Freund's adjuvant containing a suspension of Mycobacterium butyricum in heavy paraffin oil (Difco; […] in paraffin oil; Merck). Compounds 1 and 2 are suspended in carboxymethyl cellulose (1% in water) and this suspension is administered orally. The compounds are administered once daily from the 1st to the 12th day of the experiment. The paw volume and the arthritis index are determined on the 18th day. The severity of the disorder is determined by measuring the volumes of both hind paws. The measurement is carried out by the water displacement method, using a 2060 plethysmometer (Rhema-Labortechnik, Hofheim, Germany). In addition, the arthritis index is determined on the 18th day after injection. [table] Animals forming a control group are only given the solvent (1% carboxymethyl cellulose in water). 6 animals are used for each dose and in the control group. A reduction in the increase in paw volume and a decrease in the arthritis index, as compared with the untreated control group, are used as the criteria for an effect having been achieved.

[2] = Oral administration of compound 1 or compound 2 on its own (background statement); type: in vivo; conditions: 5 mg or 10 mg per kg, each compound on its own

| Compound | Decrease in arthritis index [1] [%] | Decrease in paw volume [1] [%] | effect of oral administration, compound on its own [2] |
| --- | --- | --- | --- |
| Cc1oncc1C(=O)Nc1ccc(C(F)(F)F)cc1 [Compound 1, 5-methyl-4′-trifluoromethyl-4-isoxazolecarboxanilide] | 58 | 74 | does not have any significant effect |
| C/C(O)=C(\C#N)C(=O)Nc1ccc(C(F)(F)F)cc1 [Compound 2, N-(4-trifluoromethylphenyl)-2-cyano-3-hydroxycrotonamide] |  |  | does not have any significant effect |
